Test system: slices of the large intestines
Assay: Degree of permeation of staining solution in slices of large intestines, varying pH
Set-up: species or system rat
Conditions: 0.1 mg/mL, pH 4.0, 5.0, 6.0, 7.0 and saline
Procedure: Slices of the large intestines used in Example 4 were observed, and the degree of permeation of a staining solution was observed. Fluorescein sodium was adjusted to 0.1 mg/mL in the same way as in Example 4 by dilution with solutions with pH 4.0, 5.0, 6.0, and 7.0 and a saline. Imaging was performed with a fluorescence microscope (manufactured by ZEISS, LSM510) under imaging conditions including a pinhole diameter of 1.0 and Max, and 20× and 40× lenses were used.

## O=C1OC2(c3ccc(O)cc3Oc3cc(O)ccc32)c2ccccc21 [F—Na, fluorescein sodium]
  difference in the degree of permeation into the tissues between staining solutions with varying pH: no significant difference
